The results in this text go back to ChEMBL document CHEMBL1201862, “PubChem BioAssay data set” (2004).

Holding throughout (assay): NCI anticancer screen, dose series, 48 h
The test system of test [1] is HOP-62.
Test [2] has as its system HOP-92.
In test [3] the test system is A549.
Test [4] deals with A498.
Test [5] relates to CCRF-CEM.
For test [6], the system named is TK-10.
The test system of test [7] is OVCAR-5.
Test [8] concerns NCI-H23.
In test [9] the test system is HT-29.
Test [10] deals with SK-MEL-5.
In test [11] the test system is SN12C.
The subject of test [12] is PC-3.
Test [13] deals with SF-539.
In test [14] the test system is SK-MEL-2.
For test [15], the system named is NCI/ADR-RES.
Test [16] concerns LOX IMVI.
Test [17] deals with MCF7.
Test [18] concerns Malme-3M.
In test [19] the test system is Hs-578T.

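Compound exposure: 48 hours, 5 concentrations, 96-well plates. GI50 = concentration required for 50% inhibition of growth.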 The source made the active and inactive calls. Cut-off read from the data, not from the text of the source: active = GI50 up to about 1.1 µM and inactive = higher.

As to `COc1ccc2c(c1)OCc1c-2oc2ccccc2c1=O`, the GI50 in test [1] is 53.7 µM (inactive); in [2] it was > 100 µM (inactive); in test [3], > 100 µM (inactive); in [4] it was > 100 µM (inactive); in test [5], > 100 µM (inactive); in [6], > 100 µM (inactive). For the same compound, the GI50 in [7] was > 100 µM (inactive); in test [8], 0.0895 µM (active); in test [9], > 100 µM (inactive); in test [10], 41.1 µM (inactive); in test [11], > 100 µM (inactive); in test [12] it was > 100 µM (inactive). In addition, the GI50 is 40.1 µM (inactive) in test [13]; > 100 µM (inactive) in test [14]; > 100 µM (inactive) in test [15]; > 100 µM (inactive) in test [16]; > 100 µM (inactive) in [17]; > 100 µM (inactive) in test [18].
As for `COc1ccc(/C(C)=N/NC(=S)N(C)C)c(O)c1`, the GI50 is 5.61 µM (inactive) in [1]; 29.5 µM (inactive) in [2]; 4.52 µM (inactive) in [3]; 4.49 µM (inactive) in [5]; 3.42 µM (inactive) in test [7]; 8.11 µM (inactive) in test [8]. Further, the GI50 was 3.8 µM (inactive) in test [9]; 12.1 µM (inactive) in test [10]; 11.7 µM (inactive) in [11]; 6.4 µM (inactive) in test [12]; 53.1 µM (inactive) in test [19]; 14.4 µM (inactive) in test [14]. Besides, the GI50 in [16] is 2.42 µM (inactive).
With `c1ccc(C(NC2CCCCC2NCCNC2CCCCC2NC(c2ccccc2)(c2ccccc2)c2ccccc2)(c2ccccc2)c2ccccc2)cc1` (stereo not given), the GI50 in [1] is 34.1 µM (inactive); in [2] it was 13.9 µM (inactive); in test [3] it was 64.1 µM (inactive); in test [4] it was 22.6 µM (inactive); in test [5] it was 42.4 µM (inactive); in test [6] it was 90.4 µM (inactive). Besides, the GI50 in test [7] is > 100 µM (inactive); in test [8], 20.9 µM (inactive); in test [9], > 100 µM (inactive); in test [10], 39.5 µM (inactive); in [11], > 100 µM (inactive); in test [12], 64 µM (inactive). Besides, the GI50 in [19] was 11.7 µM (inactive); in test [13], 44 µM (inactive); in test [14], 26.1 µM (inactive); in test [16], 19 µM (inactive); in test [17], 17.7 µM (inactive).
Regarding `CN(C)c1ccc(C(N)=O)cn1`, the GI50 in test [1], in test [3], in test [5], in [6], in [7] and in [8] was > 100 µM (inactive) in each case. For the same compound, the GI50 in test [9], in test [10], in test [11], in [12], in [19] and in test [13] was > 100 µM (inactive) each time. In addition, the GI50 in test [14], in [15], in test [16], in test [17] and in test [18] was > 100 µM (inactive) each time.
For the compound `Nc1ncnc2c1ncn2C1OC(CO)C(O)C1N` (stereo not given), the GI50 in test [1], in [2], in test [3], in [4], in test [6] and in test [7] was > 100 µM (inactive) throughout. For the same compound, the GI50 in test [8] was > 100 µM (inactive); in test [9], > 100 µM (inactive); in test [10] it was > 100 µM (inactive); in [11], > 100 µM (inactive); in [12], > 100 µM (inactive); in test [19], 0.08 µM (active). The GI50 in test [13], in [14], in test [15], in test [16] and in test [18] was > 100 µM (inactive) throughout.
On to `CCOC(=O)C(=[N+]=[N-])C(=O)CN1C(=O)C2CC(C)=C(C)CC2C1O` (stereo not given), for which the GI50 in test [1], in test [3], in test [5], in test [6], in [7] and in [8] was > 100 µM (inactive) throughout. Also, the GI50 in test [9], in test [10], in test [12], in [19], in test [13] and in test [14] was > 100 µM (inactive) each time. Moreover, the GI50 in [15], in test [16], in [17] and in test [18] was > 100 µM (inactive) throughout.
In the case of `COc1ccc(OC)c(C(=O)c2cccc(C(=O)c3cc(OC)ccc3OC)n2)c1`, the GI50 was 37.1 µM (inactive) in [1]; 42.9 µM (inactive) in test [3]; 46.8 µM (inactive) in [5]; 35.5 µM (inactive) in test [6]; 30.5 µM (inactive) in [7]; 20 µM (inactive) in test [8]. Further, the GI50 in test [9] was 35.7 µM (inactive); in test [10], 15 µM (inactive); in [11], 57.1 µM (inactive); in [12], 33.6 µM (inactive); in [19], 27 µM (inactive); in test [13], 28.6 µM (inactive). In addition, the GI50 in test [14] was 23 µM (inactive); in test [15], 29 µM (inactive); in [16] it was 25.5 µM (inactive); in test [17] it was 26.5 µM (inactive); in test [18], 80 µM (inactive).
As for `CC(=O)c1c(SCCN2CCCCCC2)n(-c2ccccc2)c(=S)n(-c2ccccc2)c1=O`, the GI50 in [1] was 19.5 µM (inactive); in test [2] it was 6.53 µM (inactive); in [3] it was 6.82 µM (inactive); in test [4] it was 13.4 µM (inactive); in [5], 0.0462 µM (active); in test [6] it was 2.07 µM (inactive). Moreover, the GI50 in [7] is 24.4 µM (inactive); in test [8], 17.3 µM (inactive); in [9], 7.4 µM (inactive); in test [10], 9.68 µM (inactive); in [11], 5.92 µM (inactive); in [12], 5.26 µM (inactive). Also, the GI50 was 17.7 µM (inactive) in [19]; 6 µM (inactive) in test [13]; 19.4 µM (inactive) in [14]; 34.5 µM (inactive) in [15]; 3.16 µM (inactive) in [16]; 1.51 µM (inactive) in [18].
For `CC1(C)OC[C@@H]([C@@]2(COC(c3ccccc3)(c3ccccc3)c3ccccc3)CC=CC(=O)O2)O1`, the GI50 in test [1] is 38.5 µM (inactive); in [2], 19.4 µM (inactive); in [3], 40.7 µM (inactive); in test [4], 22 µM (inactive); in test [5] it was 33.3 µM (inactive); in [6], 46.5 µM (inactive). For the same compound, the GI50 was 42.9 µM (inactive) in test [7]; 42.1 µM (inactive) in [8]; 35 µM (inactive) in [9]; 30.8 µM (inactive) in test [11]; 41.3 µM (inactive) in test [12]; 46.9 µM (inactive) in test [19]. Also, the GI50 in [13] was 37.2 µM (inactive); in test [14], 11.2 µM (inactive); in [16] it was 32.4 µM (inactive); in test [17], 21.8 µM (inactive); in [18], 24.7 µM (inactive).
